Patent US10287301B2 (Achillion Pharmaceuticals, Inc., priority 2015, dated 2019)
Like-named read-outs stand apart in the source and are kept apart here.

Biological target: Human Factor D (Homo sapiens (Human), UniProt P00746)
Assay: Human Factor D Assay
Assay type: biochemical
Procedure, shortened: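 Serum-purified human Factor D (80 nM final) was preincubated with test compound at various concentrations for 5 min at room temperature in 50 mM Tris, 1M NaCl, pH 7.5. Z-L-Lys-SBzl and DTNB were then added at 100 μM each. IC50 came from nonlinear regression of reaction rates versus compound concentration.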

[1] = Table 3, Human Factor D 80 nM, substrate Z-L-Lys-SBzl, read-out: IC50 (Stars)
[2] = Human Factor D assay of Example 8, Table 2, read-out: IC50
[3] = Human Factor D, Table 3, read-out: IC50
[4] = Human Factor D 80 nM, substrate Z-L-Lys-SBzl, read-out: IC50

Human Factor D, sequence (P00746 26-253): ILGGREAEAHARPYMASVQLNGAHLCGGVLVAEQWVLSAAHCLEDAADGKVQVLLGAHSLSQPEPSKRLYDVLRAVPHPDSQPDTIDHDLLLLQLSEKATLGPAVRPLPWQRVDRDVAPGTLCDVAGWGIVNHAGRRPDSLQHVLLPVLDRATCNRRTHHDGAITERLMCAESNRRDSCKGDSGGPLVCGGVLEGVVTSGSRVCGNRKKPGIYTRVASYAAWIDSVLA

`CC(=O)c1nn(CC(=O)N2C[C@H](F)C[C@H]2C(=O)NCc2cccc(Br)n2)c2ccc(-c3cnc(C)nc3)cc12` [Compound 483, (2S,4R)-1-(2-(3-Acetyl-5-(2-methylpyrimidin-5-yl)-1H-indazol-1-yl)acetyl)-N-((6-bromopyridin-2-yl)methyl)-4-fluoropyrrolidine-2-carboxamide] was tested. Which IC50 [1] did it give?
Its IC50 is under 1 µM.

With `CC(=O)c1nn(CC(=O)N2[C@@H]3CC[C@@H](C3)[C@H]2C(=O)Nc2cccc(Br)n2)c2ccc(-c3cnc(C)nc3)cc12` [Compound 491, (1R,3S,4S)-2-(2-(3-acetyl-5-(2-methylpyrimidin-5-yl)-1H-indazol-1-yl)acetyl)-N-(6-bromopyridin-2-yl)-2-azabicyclo[2.2.1] heptane-3-carboxamide] as the compound, how does the IC50 read?
The IC50 was under 1 µM.

For `CC(=O)c1nn(CC(=O)N2CSC(C)(C)[C@H]2C(=O)NCc2cccc(Cl)c2F)c2ccc(-c3cnc(C)nc3)cc12` [Compound 329, (R)-3-(2-(3-acetyl-5-(2-methylpyrimidin-5-yl)-1H-indazol-1-yl)acetyl)-N-(3-chloro-2-fluorobenzyl)-5,5-dimethylthiazolidine-4-carboxamide], which IC50 [2] is on record?
The IC50 was 1 to 10 µM.

`Cc1cccc(NC(=O)[C@@H]2[C@H]3CC[C@H](C3)N2C(=O)Cn2cc(C(N)=O)c3cc(-c4ccc(N)nc4)ccc32)n1` [Compound 498, 5-(6-Aminopyridin-3-yl)-1-(2-((1R,3S,4S)-3-(6-methylpyridin-2-ylcarbamoyl)-2-azabicyclo[2.2.1]heptan-2-yl)-2-oxoethyl)-1H-indole-3-carboxamide] was tested. Which IC50 [1] did it give?
The IC50 was over 10 µM.

With `CC(=O)c1nn(CC(=O)N2C[C@@H](C)C[C@H]2C(=O)Nc2nc(Br)ccc2C)c2ccc(-c3cnc(C)nc3)cc12` [Compound 643, (2S,4S)-1-(2-(3-Acetyl-5-(2-methylpyrimidin-5-yl)-1H-indazol-1-yl)acetyl)-N-(6-bromo-3-methylpyridin-2-yl)-4-methylpyrrolidine-2-carboxamide] as the compound, how does the IC50 [3] read?
The IC50 was under 1 µM.

With `CO[C@@H]1CO[C@H]2[C@@H]1OC[C@H]2Oc1ncc(-c2ccc3c(c2)c(C(C)=O)cn3CC(=O)N2C[C@H](F)C[C@H]2C(=O)Nc2cccc(Br)n2)cn1` [Compound 337, (2S,4R)-1-(2-(3-acetyl-5-(2-(((3R,3aR,6R,6aR)-6-methoxyhexahydrofuro [3,2-b]furan-3-yl)oxy)pyrimidin-5-yl)-1H-indol-1-yl)acetyl)-N-(6-bromopyridin-2-yl)-4-fluoropyrrolidine-2-carboxamide] as the compound, how does the IC50 [1] read?
Its IC50 is under 1 µM.

With `COc1ncc(-c2ccc3c(c2)c(C(N)=O)nn3CC(=O)N2C[C@H](F)C[C@H]2C(=O)Nc2cccc(-c3ccccc3Cl)c2F)cn1` [Compound 29, 1-(2-((2S,4R)-2-(2′-chloro-2-fluorobiphenyl-3-ylcarbamoyl)-4-fluoropyrrolidin-1-yl)-2-oxoethyl)-5-(2-methoxypyrimidin-5-yl)-1H-indazole-3-carboxamide] as the compound, how does the IC50 [4] read?
Its IC50 is under 1 µM.

`CC(=O)c1nn(CC(=O)N2CCC[C@H]2C(=O)Nc2cccc(C)n2)c2ccc(-c3ccc4ccccc4c3)cc12` [Compound 585, (S)-1-(2-(3-Acetyl-5-(naphthalen-2-yl)-1H-indazol-1-yl)acetyl)-N-(6-methylpyridin-2-yl)pyrrolidine-2-carboxamide] was tested. Which IC50 [3] did it give?
Its IC50 is over 10 µM.

`CC(=O)c1nn(CC(=O)N2C[C@H](F)C[C@H]2C(=O)Nc2cccc(Br)n2)c2ccc(-c3cnc(CC#N)nc3)cc12` [Compound 391, (2S,4R)-1-(2-(3-Acetyl-5-(2-(cyanomethyl)pyrimidin-5-yl)-1H-indazol-1-yl)acetyl)-N-(6-bromopyridin-2-yl)-4-fluoropyrrolidine-2-carboxamide] was tested. Which IC50 [1] did it give?
Its IC50 is under 1 µM.

With `CC(=O)c1nn(CC(=O)N2C[C@H](F)C[C@H]2C(=O)Nc2ccc(C)c(Br)n2)c2ccc(-c3cnc(C)nc3)cc12` [Compound 402, (2S,4R)-1-(2-(3-Acetyl-5-(2-methylpyrimidin-5-yl)-1H-indazol-1-yl)acetyl)-N-(6-bromo-5-methylpyridin-2-yl)-4-fluoropyrrolidine-2-carboxamide] as the compound, how does the IC50 [1] read?
Its IC50 is under 1 µM.

How did the IC50 [3] turn out when `CC(=O)c1nn(CC(=O)N2C[C@H](F)C[C@H]2C(=O)Nc2cccc(Br)n2)c2cnc(-c3cnc(C)nc3)cc12` [Compound 633, (2S,4R)-1-(2-(3-Acetyl-5-(2-methylpyrimidin-5-yl)-1H-pyrazolo[3,4-c]pyridin-1-yl)acetyl)-N-(6-bromopyridin-2-yl)-4-fluoropyrrolidine-2-carboxamide] was run?
Its IC50 is under 1 µM.

Which IC50 [3] does the source give for `CC(=O)c1nn(CC(=O)N2C[C@H](F)C[C@H]2C(=O)Nc2cccc(Br)n2)c2ccc(-c3cnc(C(=O)O)nc3)cc12` [Compound 598, 5-(3-Acetyl-1-(2-((2S,4R)-2-((6-bromopyridin-2-yl)carbamoyl)-4-fluoropyrrolidin-1-yl)-2-oxoethyl)-1H-indazol-5-yl)pyrimidine-2-carboxylic acid] here?
The IC50 was under 1 µM.

How did the IC50 [2] turn out when `CC(=O)c1nn(CC(=O)N2C[C@H](F)C[C@H]2C(=O)Nc2cncc(Br)n2)c2ccc(-c3cnc(C)nc3)cc12` [Compound 317, (2S,4R)-1-(2-(3-acetyl-5-(2-methylpyrimidin-5-yl)-1H-indazol-1-yl)acetyl)-N-(6-bromopyrazin-2-yl)-4-fluoropyrrolidine-2-carboxamide] was run?
Its IC50 is under 1 µM.

With `CC(=O)c1nn(CC(=O)N2C[C@H](F)C[C@H]2C(=O)Nc2cccc(-c3cc(F)ccc3S(C)(=O)=O)c2F)c2ccc(-c3cnc(C)nc3)cc12` [Compound 305, (2S,4R)-1-(2-(3-Acetyl-5-(2-methylpyrimidin-5-yl)-1H-indazol-1-yl)acetyl)-N-(2,5′-difluoro-2′-(methylsulfonyl)-[1,1′-biphenyl]-3-yl)-4-fluoropyrrolidine-2-carboxamide] as the compound, how does the IC50 [2] read?
Its IC50 is under 1 µM.

With `CC(=O)c1cn(CC(=O)N2C[C@H](F)C[C@H]2C(=O)Nc2nnc(-c3ccc(Cl)c(Cl)c3)s2)c2ccc(-c3ccnnc3)cc12` [Compound 117, (2S,4R)-1-(2-(3-acetyl-5-(pyridazin-4-yl)-1H-indol-1-yl)acetyl)-N-(5-(3,4-dichlorophenyl)-1,3,4-thiadiazol-2-yl)-4-fluoropyrrolidine-2-carboxamide] as the compound, how does the IC50 [4] read?
Its IC50 is over 10 µM.

For `Cc1cccc(NC(=O)[C@@H]2[C@H]3CC[C@H](C3)N2C(=O)Cn2cc(C(N)=O)c3cc(-c4ccc5cccnc5c4)ccc32)n1` [Compound 499, 1-(2-((1R,3S,4S)-3-(6-Methylpyridin-2-ylcarbamoyl)-2-azabicyclo[2.2.1]heptan-2-yl)-2-oxoethyl)-5-(quinolin-7-yl)-1H-indole-3-carboxamide], which IC50 is on record?
Its IC50 is 1 to 10 µM.

How did the IC50 [4] turn out when `NC(=O)c1nn(CC(=O)N2C[C@H](F)C[C@H]2C(=O)Nc2cc(=O)[nH]n2C2CCCCC2)c2ccc(-c3ccnnc3)cc12` [Compound 168, 1-(2-((2S,4R)-2-(2-cyclohexyl-5-oxo-2,5-dihydro-1H-pyrazol-3-ylcarbamoyl)-4-fluoropyrrolidin-1-yl)-2-oxoethyl)-5-(pyridazin-4-yl)-1H-indazole-3-carboxamide] was run?
The IC50 was over 10 µM.

For `CC(=O)c1nn(CC(=O)N2[C@@H]3C[C@@H]3C[C@H]2C(=O)Nc2cnc(C)c(Br)n2)c2ccc(-c3cnc4ccnn4c3)cc12` [Compound 667, (1R,3S,5R)-2-(2-(3-Acetyl-5-(pyrazolo[1,5-a]pyrimidin-6-yl)-1H-indazol-1-yl)acetyl)-N-(6-bromo-5-methylpyrazin-2-yl)-2-azabicyclo[3.1.0]hexane-3-carboxamide], which IC50 [3] is on record?
The IC50 was under 1 µM.

For `CC(=O)c1nn(CC(=O)N2C[C@](C)(F)C[C@H]2C(=O)Nc2cccc(Br)n2)c2ccc(-c3cnc(C)nc3)cc12` [Compound 418, (2S,4R)-1-(2-(3-Acetyl-5-(2-methylpyrimidin-5-yl)-1H-indazol-1-yl)acetyl)-N-(6-bromopyridin-2-yl)-4-fluoro-4-methylpyrrolidine-2-carboxamide], which IC50 [1] is on record?
The IC50 was under 1 µM.

With `CC(=O)c1cn(CC(=O)N2C[C@H](F)C[C@H]2C(=O)Nc2nc(-c3ccc4c(c3)CCCC4)cs2)c2ccc(-c3ccnnc3)cc12` [Compound 54, (2S,4R)-1-(2-(3-acetyl-5-(pyridazin-4-yl)-1H-indol-1-yl)acetyl)-4-fluoro-N-(4-(5,6,7,8-tetrahydro-naphthalen-2-yl)thiazol-2-yl)pyrrolidine-2-carboxamide] as the compound, how does the IC50 [4] read?
Its IC50 is over 10 µM.

`CC(=O)c1nn(CC(=O)N2CC[C@H]2C(=O)Nc2cccc(C)n2)c2ccc(-c3ccc(C)nc3)cc12` [Compound 588, (S)-1-(2-(3-Acetyl-5-(6-methylpyridin-3-yl)-1H-indazol-1-yl)acetyl)-N-(6-methylpyridin-2-yl)azetidine-2-carboxamide] was tested. Which IC50 [3] did it give?
Its IC50 is over 10 µM.

With `CC(=O)c1nn(CC(=O)N2C[C@H](F)C[C@H]2C(=O)Nc2cccc(Br)n2)c2cc(C)c(-c3cnc(C)nc3)cc12` [Compound 609, (2S,4R)-1-(2-(3-Acetyl-6-methyl-5-(2-methylpyrimidin-5-yl)-1H-indazol-1-yl)acetyl)-N-(6-bromopyridin-2-yl)-4-fluoropyrrolidine-2-carboxamide] as the compound, how does the IC50 [3] read?
The IC50 was under 1 µM.

With `CC(=O)c1cn(CC(=O)N2C[C@H](F)C[C@H]2C(=O)Nc2cccc(Br)n2)c2cc(O)c(-c3cnc(C)nc3)cc12` [Compound 328, (4R)-1-(2-(3-Acetyl-6-hydroxy-5-(2-methylpyrimidin-5-yl)-1H-indol-1-yl)acetyl)-N-(6-bromopyridin-2-yl)-4-fluoropyrrolidine-2-carboxamide] as the compound, how does the IC50 [2] read?
The IC50 was under 1 µM.

With `CC(=O)c1nn(CC(=O)N2[C@H](C(=O)Nc3nc(Br)ccc3C)C[C@@]3(C)C[C@@H]23)c2ccc(-c3cnc(N)nc3)cc12` [Compound 620, (1R,3S,5R)-2-(2-(3-Acetyl-5-(2-aminopyrimidin-5-yl)-1H-indazol-1-yl)acetyl)-N-(6-bromo-3-methylpyridin-2-yl)-5-methyl-2-azabicyclo[3.1.0]hexane-3-carboxamide] as the compound, how does the IC50 [3] read?
The IC50 was under 1 µM.

Which IC50 [4] does the source give for `CC(=O)c1cn(CC(=O)N2C[C@H](F)C[C@H]2C(=O)Nc2cccc(-c3ccccc3Cl)c2F)c2ccc(N3CCN(c4ncc(F)cn4)CC3)cc12` [Compound 32, (2S,4R)-1-(2-(3-acetyl-5-(4-(5-fluoropyrimidin-2-yl)piperazin-1-yl)-1H-indol-1-yl)acetyl)-N-(2′-chloro-2-fluorobiphenyl-3-yl)-4-fluoropyrrolidine-2-carboxamide] here?
Its IC50 is under 1 µM.
